Species on record: Rattus norvegicus
Test: DrugMatrix - Regimen: Daily Repeat
Format: toxicity, organism-based, Sprague-Dawley
Design: regimen Daily Repeat, gender Male, age 6-8 weeks
Conditions: in vivo, po, route oral GAVAGE, […]; for ABSOLUTE BASOPHIL / ABSOLUTE EOSINOPHIL / ABSOLUTE LYMPHOCYTE / ABSOLUTE MONOCYTE / ABSOLUTE SEGMENTED NEUTROPHIL / BASOPHIL / EOSINOPHIL / ERYTHROCYTE COUNT / HEMATOCRIT / HEMOGLOBIN / LEUKOCYTE COUNT / LYMPHOCYTE / MEAN CORPUSCULAR HEMOGLOBIN / MEAN CORPUSCULAR HEMOGLOBIN CONCENTRATION / MEAN CORPUSCULAR VOLUME / MONOCYTE / NEUTROPHIL / NUCLEATED RED BLOOD CELLS / PLATELET COUNT: tissue Blood; for ALANINE AMINOTRANSFERASE / ALBUMIN / ALKALINE PHOSPHATASE / ASPARTATE AMINOTRANSFERASE / BLOOD UREA NITROGEN / CARBON DIOXIDE / CHLORIDE / CHOLESTEROL / CREATINE PHOSPHOKINASE / CREATININE / GLUCOSE / LACTATE DEHYDROGENASE / LIPASE / PHOSPHORUS / POTASSIUM / SODIUM / TOTAL BILIRUBIN / TOTAL PROTEIN / URIC ACID: tissue Plasma
[1] = 10 mg/kg, 120 h, dose level Low, time 5 day
[2] = 92 mg/kg, 72 h, dose level High, time 3 day
[3] = 92 mg/kg, 120 h, dose level High, time 5 day

c1ccc2[nH]c(-c3cscn3)nc2c1 [THIABENDAZOLE]
ABSOLUTE BASOPHIL [1]: 0 CELLS/uL | ABSOLUTE EOSINOPHIL [1]: 61 CELLS/uL | ABSOLUTE LYMPHOCYTE [1]: 15391 CELLS/uL | ABSOLUTE MONOCYTE [1]: 225.67 CELLS/uL | ABSOLUTE SEGMENTED NEUTROPHIL [1]: 1089 CELLS/uL | BASOPHIL [1]: 0% | EOSINOPHIL [1]: 0.33% | ERYTHROCYTE COUNT [1]: 6.11 x10E6/uL | HEMATOCRIT [1]: 37.8% | HEMOGLOBIN [1]: 14.63 G/DL | LEUKOCYTE COUNT [1]: 16.77 x10E3/uL | LYMPHOCYTE [1]: 92% | MEAN CORPUSCULAR HEMOGLOBIN [1]: 23.97 pg | MEAN CORPUSCULAR HEMOGLOBIN CONCENTRATION [1]: 38.7 G/DL | MEAN CORPUSCULAR VOLUME [1]: 61.9 fL | MONOCYTE [1]: 1.33% | NEUTROPHIL [1]: 6.33% | NUCLEATED RED BLOOD CELLS [1]: 0 /100WBC | PLATELET COUNT [1]: 1202.33 x10E3/uL | ALANINE AMINOTRANSFERASE [1]: 79.33 u/L | ALBUMIN [1]: 4 G/DL | ALKALINE PHOSPHATASE [1]: 420.33 u/L | ASPARTATE AMINOTRANSFERASE [1]: 82.33 u/L | BLOOD UREA NITROGEN [1]: 12.33 mg/dL | CARBON DIOXIDE [1]: 30.67 mmol/L | CHLORIDE [1]: 100.67 MEQ/L | CHOLESTEROL [1]: 66.33 mg/dL | CREATINE PHOSPHOKINASE [1]: 192 u/L | CREATININE [1]: 0.19 mg/dL | GLUCOSE [1]: 163.67 mg/dL | LACTATE DEHYDROGENASE [1]: 183 u/L | LIPASE [1]: 10.33 u/L | PHOSPHORUS [1]: 11.47 mg/dL | POTASSIUM [1]: 6.52 MEQ/L | SODIUM [1]: 143.07 MEQ/L | TOTAL BILIRUBIN [1]: 0.13 mg/dL | TOTAL PROTEIN [1]: 5.6 G/DL | URIC ACID [1]: 1.87 mg/dL | ABSOLUTE BASOPHIL [2]: 0 CELLS/uL | ABSOLUTE EOSINOPHIL [2]: 24 CELLS/uL | ABSOLUTE LYMPHOCYTE [2]: 7261 CELLS/uL | ABSOLUTE MONOCYTE [2]: 24 CELLS/uL | ABSOLUTE SEGMENTED NEUTROPHIL [2]: 591 CELLS/uL | BASOPHIL [2]: 0% | EOSINOPHIL [2]: 0.33% | ERYTHROCYTE COUNT [2]: 5.57 x10E6/uL | HEMATOCRIT [2]: 35.07% | HEMOGLOBIN [2]: 13.8 G/DL | LEUKOCYTE COUNT [2]: 7.9 x10E3/uL | LYMPHOCYTE [2]: 91.33% | MEAN CORPUSCULAR HEMOGLOBIN [2]: 24.83 pg | MEAN CORPUSCULAR HEMOGLOBIN CONCENTRATION [2]: 39.4 G/DL | MEAN CORPUSCULAR VOLUME [2]: 63.07 fL | MONOCYTE [2]: 0.33% | NEUTROPHIL [2]: 8% | NUCLEATED RED BLOOD CELLS [2]: 0.33 /100WBC | PLATELET COUNT [2]: 1094.67 x10E3/uL | ALANINE AMINOTRANSFERASE [2]: 74.33 u/L | ALBUMIN [2]: 4.13 G/DL | ALKALINE PHOSPHATASE [2]: 448.67 u/L | ASPARTATE AMINOTRANSFERASE [2]: 82 u/L | BLOOD UREA NITROGEN [2]: 11.67 mg/dL | CARBON DIOXIDE [2]: 25 mmol/L | CHLORIDE [2]: 95.67 MEQ/L | CHOLESTEROL [2]: 85 mg/dL | CREATINE PHOSPHOKINASE [2]: 153.33 u/L | CREATININE [2]: 0.32 mg/dL | GLUCOSE [2]: 135.67 mg/dL | LACTATE DEHYDROGENASE [2]: 102 u/L | LIPASE [2]: 9.33 u/L | PHOSPHORUS [2]: 9.53 mg/dL | POTASSIUM [2]: 5.43 MEQ/L | SODIUM [2]: 139.33 MEQ/L | TOTAL BILIRUBIN [2]: 0.13 mg/dL | TOTAL PROTEIN [2]: 5.73 G/DL | URIC ACID [2]: 0.6 mg/dL | ABSOLUTE BASOPHIL [3]: 0 CELLS/uL | ABSOLUTE EOSINOPHIL [3]: 47 CELLS/uL | ABSOLUTE LYMPHOCYTE [3]: 13905 CELLS/uL | ABSOLUTE MONOCYTE [3]: 244.33 CELLS/uL | ABSOLUTE SEGMENTED NEUTROPHIL [3]: 703.67 CELLS/uL | BASOPHIL [3]: 0% | EOSINOPHIL [3]: 0.33% | ERYTHROCYTE COUNT [3]: 6.23 x10E6/uL | HEMATOCRIT [3]: 39.1% | HEMOGLOBIN [3]: 15 G/DL | LEUKOCYTE COUNT [3]: 14.9 x10E3/uL | LYMPHOCYTE [3]: 93.33% | MEAN CORPUSCULAR HEMOGLOBIN [3]: 24.1 pg | MEAN CORPUSCULAR HEMOGLOBIN CONCENTRATION [3]: 38.37 G/DL | MEAN CORPUSCULAR VOLUME [3]: 62.7 fL | MONOCYTE [3]: 1.67% | NEUTROPHIL [3]: 4.67% | NUCLEATED RED BLOOD CELLS [3]: 0 /100WBC | PLATELET COUNT [3]: 1269.33 x10E3/uL | ALANINE AMINOTRANSFERASE [3]: 73.33 u/L | ALBUMIN [3]: 4.13 G/DL | ALKALINE PHOSPHATASE [3]: 474.33 u/L | ASPARTATE AMINOTRANSFERASE [3]: 82 u/L | BLOOD UREA NITROGEN [3]: 13.33 mg/dL | CARBON DIOXIDE [3]: 25.67 mmol/L | CHLORIDE [3]: 101 MEQ/L | CHOLESTEROL [3]: 64.33 mg/dL | CREATINE PHOSPHOKINASE [3]: 344.33 u/L | CREATININE [3]: 0.18 mg/dL | GLUCOSE [3]: 187 mg/dL | LACTATE DEHYDROGENASE [3]: 278 u/L | LIPASE [3]: 10.33 u/L | PHOSPHORUS [3]: 12.03 mg/dL | POTASSIUM [3]: 6.59 MEQ/L | SODIUM [3]: 141.23 MEQ/L | TOTAL BILIRUBIN [3]: 0.2 mg/dL | TOTAL PROTEIN [3]: 5.7 G/DL | URIC ACID [3]: 2.43 mg/dL

Reference: ChEMBL document CHEMBL3885881, “DrugMatrix”
